Series [1] can be described thus: genotoxicity of side-products of the process with compound (IIIa). To be noted: side-products formed when compound (IIIa) is used. An excerpt:
According to the process herein described when compound (IIIa) is being used compounds of formulae (X) and (XI) may be produced as side-products, which are genotoxic: […]

A short description of series [2]: relative stability of polymorphs Form A and Form F. Type of series: physicochemical.

Each structure is given as a SMILES string.

Regarding `CCc1nc(C)cn2nc(-c3nc4c(C)cc(C5CCN(C)CC5)cn4c(=O)c3Cl)cc12` [(X)], the genotoxicity entry in series [1] is recorded as “genotoxic”.
Still for that read-out and setting: in the case of `CCc1nc(C)cn2nc(-c3nc4c(C)cc(C5CCN(C)CC5)cn4c(=O)c3C(=O)CCl)cc12` [(XI)] it was “genotoxic”.
Regarding `CCc1nc(C)cn2nc(-c3cc(=O)n4cc(C5CCN(C)CC5)cc(C)c4n3)cc12` [Form F, 2-(4-Ethyl-6-methyl-pyrazolo[1,5-a]pyrazin-2-yl)-9-methyl-7-(1-methyl-piperidin-4-yl)-pyrido[1,2-a]pyrimidin-4-one], the drug product robustness result in series [2] (Form F) was “improve drug product robustness”. Further, the “relative thermodynamic stability of polymorphs (enantiotropically related)” value in series [2] (at 80° C. or below, Form F versus Form A) was “more stable”.
